Experimental data published in ChEMBL document CHEMBL1201862, “PubChem BioAssay data set” (2004).
Active and inactive are the calls of the source.

What was measured:
Streptococcus = experiment: Group A Streptococcus viability loss, dose response, counter-screen for streptokinase expression inhibitor project, luminescence, BacTiterGlo (AID 1915); format: functional, organism-based;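 further: potency for reduction of bacterial viability or growth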
[1] = system: Streptococcus sp. 'group A'; experiment: growth inhibition of control SK(-) GAS strain, dose response, counter-screen for streptokinase expression inhibitor project, luminescence, kanamycin, BacTiterGlo, confirmation (AID 1900); format: functional, organism-based
Vero [2] = experiment: cells; format: functional, cell-based; conditions: Chlorocebus sabaeus
Vero [3] = experiment: cells; format: functional; conditions: Chlorocebus sabaeus
[4] = biological target: Heat shock protein HSP 90-alpha (Homo sapiens, UniProt P07900); format: functional, organism-based
[5] = Luminescence Cell-Based Dose Retest to Confirm Inhibitors of Cancer Stem Cells. [Related pubchem assays (depositor defined):AID2717, AID2721]; format: functional; conditions: Homo sapiens
cells [6] = format: functional
[7] = THP-1 cell cytotoxicity, dose response, cytotoxicity control for non-replicating M. tuberculosis project (AID 489025); format: functional
[8] = biological target: T1, Sentrin-specific protease 7 (Homo sapiens, UniProt Q9BQF6); format: functional;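 further: Luminescence-based dose-response confirmation of ultra-high-throughput screening hits, measuring inhibition of SENP7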
T1 sequence (Q9BQF6 whole entry): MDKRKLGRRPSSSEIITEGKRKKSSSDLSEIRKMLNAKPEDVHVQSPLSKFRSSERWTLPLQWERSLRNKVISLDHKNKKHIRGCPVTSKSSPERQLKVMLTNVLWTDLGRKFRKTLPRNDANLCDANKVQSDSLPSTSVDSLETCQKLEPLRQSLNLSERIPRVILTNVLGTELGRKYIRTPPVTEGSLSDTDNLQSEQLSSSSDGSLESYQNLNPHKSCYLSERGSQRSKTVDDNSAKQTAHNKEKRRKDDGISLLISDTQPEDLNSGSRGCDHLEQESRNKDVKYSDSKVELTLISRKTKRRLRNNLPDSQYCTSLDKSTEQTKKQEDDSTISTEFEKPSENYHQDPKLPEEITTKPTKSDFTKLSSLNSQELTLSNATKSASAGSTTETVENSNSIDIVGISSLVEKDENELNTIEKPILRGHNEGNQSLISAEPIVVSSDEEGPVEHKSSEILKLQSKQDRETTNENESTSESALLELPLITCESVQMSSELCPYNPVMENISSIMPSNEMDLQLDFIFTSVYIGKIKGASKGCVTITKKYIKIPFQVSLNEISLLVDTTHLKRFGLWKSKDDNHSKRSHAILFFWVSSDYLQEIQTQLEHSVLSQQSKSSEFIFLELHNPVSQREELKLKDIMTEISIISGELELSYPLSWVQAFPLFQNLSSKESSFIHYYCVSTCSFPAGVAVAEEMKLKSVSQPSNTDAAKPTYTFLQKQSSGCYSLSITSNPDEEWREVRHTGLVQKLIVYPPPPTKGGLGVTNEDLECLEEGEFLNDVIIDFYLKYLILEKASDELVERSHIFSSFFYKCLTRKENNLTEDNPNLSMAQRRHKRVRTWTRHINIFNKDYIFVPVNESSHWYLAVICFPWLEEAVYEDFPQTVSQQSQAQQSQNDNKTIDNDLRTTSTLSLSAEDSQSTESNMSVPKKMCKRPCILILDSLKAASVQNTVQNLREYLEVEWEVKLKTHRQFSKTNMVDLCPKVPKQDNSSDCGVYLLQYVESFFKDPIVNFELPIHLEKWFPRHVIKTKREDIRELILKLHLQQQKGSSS

INS1 = experiment: beta cell apoptosis inhibitors, cytokine rescue, dose response, luminescence, retest (AID 449756); format: functional, cell-based; conditions: Rattus norvegicus;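 further: cell death triggered by IL-1 beta plus TNF-alpha plus IFN-gamma mixture; protective hits raise ATP signal compared with cytokine alone wells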
[9] = Vero E6 cell cytotoxicity, dose response, cytotoxicity control for non-replicating M. tuberculosis project, secondary assay (AID 492998); format: functional, VeroE6; conditions: Vero C1008
Caspase-3 = biological target: T2, Caspase-3 (Homo sapiens, UniProt P42574); format: functional;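 further: Dose-response selectivity test against caspase-3 for candidate inhibitors of sentrin-specific proteases (SENPs)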
T2 sequence (P42574 whole entry): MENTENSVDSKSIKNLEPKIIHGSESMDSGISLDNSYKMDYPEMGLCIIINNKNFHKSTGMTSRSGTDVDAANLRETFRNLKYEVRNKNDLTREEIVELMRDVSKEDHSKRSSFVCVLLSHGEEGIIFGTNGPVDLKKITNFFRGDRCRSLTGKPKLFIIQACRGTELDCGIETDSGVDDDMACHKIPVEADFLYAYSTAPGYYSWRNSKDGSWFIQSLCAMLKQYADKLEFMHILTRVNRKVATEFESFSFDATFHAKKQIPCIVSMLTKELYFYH

[10] = biological target: T3, Sentrin-specific protease 8 (Homo sapiens, UniProt Q96LD8); format: functional;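 further: luminescence read-out of SENP8 inhibition, dose-response confirmation following an ultra-high-throughput screen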
T3 sequence (Q96LD8 whole entry): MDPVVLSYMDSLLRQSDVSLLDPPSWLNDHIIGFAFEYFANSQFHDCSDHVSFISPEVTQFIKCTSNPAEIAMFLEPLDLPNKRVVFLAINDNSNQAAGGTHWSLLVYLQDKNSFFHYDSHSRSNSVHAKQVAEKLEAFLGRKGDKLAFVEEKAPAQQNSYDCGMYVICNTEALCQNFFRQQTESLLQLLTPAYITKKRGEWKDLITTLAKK

[11] = biological target: T4, Sentrin-specific protease 6 (Homo sapiens, UniProt Q9GZR1); format: functional;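 further: Luminescence-based dose-response confirmatory assay of SENP6 inhibition, following up an ultra-high-throughput screen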
T4 sequence (Q9GZR1 whole entry): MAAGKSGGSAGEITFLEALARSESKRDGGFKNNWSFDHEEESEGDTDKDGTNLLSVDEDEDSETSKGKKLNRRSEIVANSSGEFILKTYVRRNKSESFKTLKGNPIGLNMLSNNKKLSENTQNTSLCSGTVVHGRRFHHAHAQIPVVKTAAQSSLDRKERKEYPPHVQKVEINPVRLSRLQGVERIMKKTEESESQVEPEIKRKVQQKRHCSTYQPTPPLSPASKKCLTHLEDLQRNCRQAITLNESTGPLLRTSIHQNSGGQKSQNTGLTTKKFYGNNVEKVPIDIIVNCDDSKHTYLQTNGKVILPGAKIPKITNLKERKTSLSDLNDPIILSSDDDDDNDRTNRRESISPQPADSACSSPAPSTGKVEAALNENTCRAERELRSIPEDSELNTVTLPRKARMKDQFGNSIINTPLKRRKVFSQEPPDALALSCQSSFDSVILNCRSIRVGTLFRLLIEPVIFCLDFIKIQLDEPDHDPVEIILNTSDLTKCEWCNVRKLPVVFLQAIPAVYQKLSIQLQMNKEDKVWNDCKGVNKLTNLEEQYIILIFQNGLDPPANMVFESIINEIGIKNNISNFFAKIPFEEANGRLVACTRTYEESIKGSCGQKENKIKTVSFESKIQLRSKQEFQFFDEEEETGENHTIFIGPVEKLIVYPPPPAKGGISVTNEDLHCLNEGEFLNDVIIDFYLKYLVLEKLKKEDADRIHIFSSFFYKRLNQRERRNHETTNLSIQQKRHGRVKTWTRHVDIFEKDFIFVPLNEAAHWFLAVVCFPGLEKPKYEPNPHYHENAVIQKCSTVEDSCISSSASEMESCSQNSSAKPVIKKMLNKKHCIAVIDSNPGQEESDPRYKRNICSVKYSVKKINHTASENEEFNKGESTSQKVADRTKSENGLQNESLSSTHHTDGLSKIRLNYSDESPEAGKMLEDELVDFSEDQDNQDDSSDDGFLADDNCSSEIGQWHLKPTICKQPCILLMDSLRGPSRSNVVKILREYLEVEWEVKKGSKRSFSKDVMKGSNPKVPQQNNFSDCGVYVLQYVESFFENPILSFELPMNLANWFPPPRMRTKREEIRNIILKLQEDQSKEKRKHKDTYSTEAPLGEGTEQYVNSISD

[12] = cytotoxicity in HEK-293T cells, dose response, cytotoxicity control for TCR NF-kB inhibitor project, luminescence, T-cell screen hits (AID 489026); format: functional, cell-based;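 further: cells exposed to compound about 14 hours before the viability readout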
[13] = microbe, parasite or virus in culture; format: functional; conditions: Mycobacterium tuberculosis
[14] = HEp-2 cell cytotoxicity, dose response, cytotoxicity control for RSV inhibitor project, HTS (AID 2410); format: functional; conditions: human respiratory syncytial virus
cells [15] = experiment: cells

For `CC(C)c1ccc(OCC(=O)NNC(=S)NC(=O)c2ccco2)c(Br)c1`, the EC50 (Streptococcus) was 0.141 µM (active), the EC50 [1] was < 0.06 µM (active) and the IC50 (Vero [2]) was > 25 µM (active). For the same compound, the CC50 (Vero [3]) was > 25 µM (active).
With `OC(Cn1cncn1)(c1ccc(F)cc1)c1ccc(Cl)cc1` (configuration not stated) the AC50 [4] was < 0.195 µM (active).
With `O=C1C=C(Nc2ccc(F)cc2)c2ccccc2C1=O` the AC50 [5] was 3.19 µM (active), the IC50 (cells [6]) was 4.25 µM (active) and the CC50 [7] was 19 µM (active). For the same compound, the IC50 [8] was 9.46 µM (active), the AC50 (INS1) was 3.06 µM (active) and the CC50 [9] was 9.15 µM (active). For the same compound, the IC50 (Caspase-3) was 13.9 µM (active), the IC50 [10] was 4.81 µM (active) and the IC50 [11] was 2.94 µM (active).
For `O=C(Nc1ccn(Cc2ccccc2F)n1)c1ccc(COc2ccc(Br)cc2)cc1`, the IC50 [12] was > 80 µM (inactive).
In the case of `Cc1cccc(NC(S)=NCC23C=CC(O2)C2C(=O)N(c4ccc(Cl)cc4)C(=O)C23)c1` (configuration not stated), the AC50 [4] is reported as 15 µM (active).
For `CCCc1c(NC(=O)Nc2ccc(Cl)cc2Cl)cnn1-c1ccccc1`, the IC50 (Vero [2]) was 17.9 µM (active) and the CC50 (Vero [3]) was > 25 µM (active).
For `CCCCCCCCCC(=O)N[C@@H]1c2cc(OC)c(OC)cc2C[C@H]1OCc1ccccc1`, the IC50 (Vero [2]) was > 25 µM (active).
With `O=C(CCN1C(=O)/C(=C/c2ccc(F)cc2)SC1=S)NCCc1ccc(O)cc1` the IC50 (Vero [2]) was > 25 µM (active) and the CC50 (Vero [3]) was 24.1 µM (active).
In the case of `Cc1cc(/C=C/c2ccc3cc(N(C)C)ccc3[n+]2C)c(C)n1-c1ccccc1`, the AC50 [4] is reported as 5.91 µM (active) and the CC50 [13] is reported as 2.28 µM (active).
With `O=S(=O)(Nc1ccc(F)cc1Cl)c1ccc(-c2cnc(C3CC3)o2)cc1` the IC50 [12] was > 80 µM (inactive).
For `COc1ccccc1C1CCCN1Cc1nc(-c2ccc(C)s2)oc1C` (configuration not stated), the IC50 (Vero [2]) was 10.9 µM (active), the CC50 [14] was 20.2 µM (active) and the IC50 (cells [15]) was 33.3 µM (active).
